Legend:
[1] = test system: Plasmodium falciparum; assay: Antimalarial activity, in vitro culture, [3H]-hypoxanthine incorporation; type: cell-based; conditions: 72 h, asynchronous culture, 48 h + 24 h with [3H]-hypoxanthine, read-out: IC50 (nM) of malaria culture (Plasmodium falciparum)
Experimental: The antimalarial activity of substances 1 to 8 (see page 5) was determined using in vitro cultures of the causative organism of malaria, Plasmodium falciparum. 200 μl of an asynchronous Plasmodium falciparum culture with a 0.4% blood parasite content and a heamatocrit of 2% were loaded into each of the wells of a 96 well microtitre plate. A serial dilution series of the compounds was then prepared in steps of three between concentrations of 100 and 0.14 μmol l^−1. The plates were incubated at 37° C., 3% CO2 and 5% O2 over a period of 48 hours. 30 μl of medium supplemented with 27 μCi ml^−1 of [^3H]-hypoxanthine were then added to each well. After 24 hours' incubation, the parasites were harvested by filtration through glass fibre filters and the incorporated radioactivity was measured. Inhibition of parasite growth was measured as the percentage inhibition of tritium incorporation. Inhibition of parasite growth was expressed as the percentage inhibition of tritium incorporation relative to a comparison without the substance. The median inhibitory concentration (IC50) of the substance was determined by extrapolating the values.

[2] = test system: Galium aperine; assay: Herbicidal activity, soil, post-emergence; type: in vivo; conditions: Soil, post-emergence, 2000 gram/hectare, read-out: Herbicidal activity, Galium aperine
Experimental: (§1) Herbicidal activity is determined using standard methods.
(§2) Substances 1 to 8 listed on page 5 are again investigated.

[3] = test system: Abutilon theophrasti; assay: Herbicidal activity, soil, post-emergence; type: in vivo; conditions: Soil, post-emergence, 2000 gram/hectare, read-out: Herbicidal activity, Abutilon theophrasti
Experimental: as §1, §2

[4] = test system: Beta vulgaris; assay: Herbicidal activity, soil, post-emergence; type: in vivo; conditions: Soil, post-emergence, 2000 gram/hectare, read-out: Herbicidal activity, Beta vulgaris
Experimental: as §1, §2

[5] = test system: Setaria viridis; assay: Herbicidal activity, soil, post-emergence; type: in vivo; conditions: Soil, post-emergence, 2000 gram/hectare, read-out: Herbicidal activity, Setaria viridis
Experimental: as §1, §2

[6] = test system: Cyperus esculentus; assay: Herbicidal activity, soil, post-emergence; type: in vivo; conditions: Soil, post-emergence, 2000 gram/hectare, read-out: Herbicidal activity, Cyperus esculentus
Experimental: as §1, §2

[7] = test system: Alopecurus myosuroides; assay: Herbicidal activity, soil, post-emergence; type: in vivo; conditions: Soil, post-emergence, 2000 gram/hectare, read-out: Herbicidal activity, Alopecurus myosuroides
Experimental: as §1, §2

[8] = test system: Amaranthus retroflexus; assay: Herbicidal activity, soil, post-emergence; type: in vivo; conditions: Soil, post-emergence, 2000 gram/hectare, read-out: Herbicidal activity, Amaranthus retroflexus
Experimental: as §1, §2

[9] = test system: Avena fatua; assay: Herbicidal activity, soil, post-emergence; type: in vivo; conditions: Soil, post-emergence, 2000 gram/hectare, read-out: Herbicidal activity, Avena fatua
Experimental: as §1, §2

[10] = test system: Zea mays; assay: Herbicidal activity, soil, post-emergence; type: in vivo; conditions: Soil, post-emergence, 2000 gram/hectare, read-out: Herbicidal activity, Zea mays
Experimental: as §1, §2

[11] = test system: Xanthium strumarium; assay: Herbicidal activity, soil, post-emergence; type: in vivo; conditions: Soil, post-emergence, 2000 gram/hectare, read-out: Herbicidal activity, Xanthium strumarium
Experimental: as §1, §2

[12] = test system: Sinapis arvensis; assay: Herbicidal activity, soil, post-emergence; type: in vivo; conditions: Mutarda arvensis; Soil, post-emergence; 2000 gram/hectare; read-out: Herbicidal activity, Sinapis arvensis
Experimental: as §1, §2

[13] = test system: Rice; assay: Herbicidal activity, water, pre-emergence; type: in vivo; conditions: Oryza sativa, Water, 4000 gram/hectare, read-out: Herbicidal activity, Rice
Experimental: as §1, §2

[14] = test system: Lepidium; assay: Herbicidal activity, water, pre-emergence; type: in vivo; conditions: Water, 4000 gram/hectare, read-out: Herbicidal activity, Lepidium
Experimental: as §1, §2

[15] = test system: Echinochloa; assay: Herbicidal activity, water, pre-emergence; type: in vivo; conditions: Water, 4000 gram/hectare, read-out: Herbicidal activity, Echinochloa
Experimental: as §1, §2

[16] = test system: Solanum; assay: Herbicidal activity, water, pre-emergence; type: in vivo; conditions: Water, 4000 gram/hectare, read-out: Herbicidal activity, Solanum
Experimental: as §1, §2

[17] = target: T1, DOXP reductoisomerase from Helicobacter pylori (Helicobacter pylori, UniProt P56139); assay: DOXP reductoisomerase inhibition (NADPH oxidation at 365 nm); type: biochemical; conditions: recombinant enzyme; 0.3 mM NADPH, 1 mM DOXP, pH 7.5; read-out: IC50 (nM) of DOXP reductoisomerase from Helicobacter pylori
T1 construct: made in house; host or cells: Helicobacter pylori (so in the source)
T1 sequence (P56139 1-368): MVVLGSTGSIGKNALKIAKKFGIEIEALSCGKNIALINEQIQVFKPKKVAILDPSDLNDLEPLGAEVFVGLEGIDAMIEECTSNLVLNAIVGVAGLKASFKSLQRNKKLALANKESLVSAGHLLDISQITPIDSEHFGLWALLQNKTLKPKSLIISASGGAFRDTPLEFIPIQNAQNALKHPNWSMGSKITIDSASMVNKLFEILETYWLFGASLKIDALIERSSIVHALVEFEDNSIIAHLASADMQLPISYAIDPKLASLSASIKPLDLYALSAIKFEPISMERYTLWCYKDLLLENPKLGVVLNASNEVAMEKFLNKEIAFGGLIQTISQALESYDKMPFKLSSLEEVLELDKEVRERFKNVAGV
Experimental: The DOXP reductoisomerase of Helicobacter pylori was expressed as a recombinant protein in Helicobacter pylori. The activity of DOXP reductoisomerase was determined in a batch containing 100 mM tris-HCl (pH=7.5), 1 mM MnCl2, 0.3 mM NADPH and 1 mM DOXP.
The oxidation of NADPH was here measured at 365 nm in a spectrophotometer. The inhibition studies were performed by measuring the activity of DOXP reductoisomerase in the presence of compounds 1 to 8 (see page 5) at various concentrations between 0. 1 and 100 μmol l^−1.

[18] = test system: Galium aperine; assay: Herbicidal activity, soil, pre-emergence; type: in vivo; conditions: Soil, pre-emergence, 2000 gram/hectare, read-out: Herbicidal activity, Galium aperine
Experimental: as §1, §2

[19] = test system: Abutilon theophrasti; assay: Herbicidal activity, soil, pre-emergence; type: in vivo; conditions: Soil, pre-emergence, 2000 gram/hectare, read-out: Herbicidal activity, Abutilon theophrasti
Experimental: as §1, §2

[20] = test system: Beta vulgaris; assay: Herbicidal activity, soil, pre-emergence; type: in vivo; conditions: Soil, pre-emergence, 2000 gram/hectare, read-out: Herbicidal activity, Beta vulgaris
Experimental: as §1, §2

[21] = test system: Setaria viridis; assay: Herbicidal activity, soil, pre-emergence; type: in vivo; conditions: Soil, pre-emergence, 2000 gram/hectare, read-out: Herbicidal activity, Setaria viridis
Experimental: as §1, §2

[22] = test system: Cyperus esculentus; assay: Herbicidal activity, soil, pre-emergence; type: in vivo; conditions: Soil, pre-emergence, 2000 gram/hectare, read-out: Herbicidal activity, Cyperus esculentus
Experimental: as §1, §2

[23] = test system: Alopecurus myosuroides; assay: Herbicidal activity, soil, pre-emergence; type: in vivo; conditions: Soil, pre-emergence, 2000 gram/hectare, read-out: Herbicidal activity, Alopecurus myosuroides
Experimental: as §1, §2

[24] = test system: Amaranthus retroflexus; assay: Herbicidal activity, soil, pre-emergence; type: in vivo; conditions: Soil, pre-emergence, 2000 gram/hectare, read-out: Herbicidal activity, Amaranthus retroflexus
Experimental: as §1, §2

[25] = test system: Avena fatua; assay: Herbicidal activity, soil, pre-emergence; type: in vivo; conditions: Soil, pre-emergence, 2000 gram/hectare, read-out: Herbicidal activity, Avena fatua
Experimental: as §1, §2

[26] = test system: Zea mays; assay: Herbicidal activity, soil, pre-emergence; type: in vivo; conditions: Soil, pre-emergence, 2000 gram/hectare, read-out: Herbicidal activity, Zea mays
Experimental: as §1, §2

[27] = test system: Xanthium strumarium; assay: Herbicidal activity, soil, pre-emergence; type: in vivo; conditions: Soil, pre-emergence, 2000 gram/hectare, read-out: Herbicidal activity, Xanthium strumarium
Experimental: as §1, §2

[28] = test system: Sinapis arvensis; assay: Herbicidal activity, soil, pre-emergence; type: in vivo; conditions: Mutarda arvensis; Soil, pre-emergence; 2000 gram/hectare; read-out: Herbicidal activity, Sinapis arvensis
Experimental: as §1, §2

SMILES: CN(CC(=O)P(C)(C)=O)CN(O)C(=O)C(F)(F)F [Compound 7, 2-(N-(N-Trifluoracetyl-N-hydroxyaminomethyl)-N-methyl)amino-1-oxoethyldimethylphosphine oxide]
- IC50 [1]: 1100 nM
- pest or weed control at 2000 g/ha [2]: 70%
- pest or weed control at 2000 g/ha [3]: 50%
- plant injury at 2000 g/ha [4]: 50%
- pest or weed control at 2000 g/ha [5]: 90%
- pest or weed control at 2000 g/ha [6]: 0%
- pest or weed control at 2000 g/ha [7]: 80%
- pest or weed control at 2000 g/ha [8]: 50%
- pest or weed control at 2000 g/ha [9]: 80%
- plant injury at 2000 g/ha [10]: 70%
- pest or weed control at 2000 g/ha [11]: 90%
- pest or weed control at 2000 g/ha [12]: 70%
- plant injury at 4000 g/ha [13]: 30%
- pest or weed control at 4000 g/ha [14]: 40%
- pest or weed control at 4000 g/ha [15]: 40%
- pest or weed control at 4000 g/ha [16]: 30%
- IC50 [17]: 300 nM
- pest or weed control at 2000 g/ha [18]: 0%
- pest or weed control at 2000 g/ha [19]: 0%
- plant injury at 2000 g/ha [20]: 70%
- pest or weed control at 2000 g/ha [21]: 0%
- pest or weed control at 2000 g/ha [22]: 0%
- pest or weed control at 2000 g/ha [23]: 30%
- pest or weed control at 2000 g/ha [24]: 20%
- pest or weed control at 2000 g/ha [25]: 30%
- plant injury at 2000 g/ha [26]: 30%
- pest or weed control at 2000 g/ha [27]: 0%
- pest or weed control at 2000 g/ha [28]: 30%
